“Also recorded” adds a separate entry of the source. Read-outs that look alike come from different tables or passages of the source. Bridge positions count the residues as written; N and C are the ends. Ends that are not written are not given here.

The target in series [1] is T1, trypsin (Sus scrofa, UniProt P00761).
The format of series [2] is physicochemical. To be noted: SYPRO Orange, 0.1 mg/mL in PBS, 20 to 95 °C.
A short description of series [3]: Circular dichroism thermostability. It counts as physicochemical. The conditions noted are these: 25-30 µM in 10 mM phosphate buffer pH 7.4, heated 20 to 95 °C at 2 °C per min, 220 nm. As to the method: Protein secondary structures were assessed using circular dichrosim (CD). CD spectra were measured with a Jasco J-720W spectropolarimeter using a 1.0 mm path length cell. Protein samples (25-30 µM) in 10 mM phosphate buffer (pH 7.4) were analyzed at a wavelength range of 190 to 260 nm. […] Data are expressed in terms of relative ellipticity [θ], reported in mdeg.
(CD spectra are sensitive to the conformation of chiral molecules.)

For series [4], the target named is T2, YAP:TEAD (Homo sapiens, UniProt P28347). It counts as biochemical. Also on record: plasmid # 66853; host or cells: 293T cells, RIPA lysates.
Target sequence in this assay (P28347 whole entry): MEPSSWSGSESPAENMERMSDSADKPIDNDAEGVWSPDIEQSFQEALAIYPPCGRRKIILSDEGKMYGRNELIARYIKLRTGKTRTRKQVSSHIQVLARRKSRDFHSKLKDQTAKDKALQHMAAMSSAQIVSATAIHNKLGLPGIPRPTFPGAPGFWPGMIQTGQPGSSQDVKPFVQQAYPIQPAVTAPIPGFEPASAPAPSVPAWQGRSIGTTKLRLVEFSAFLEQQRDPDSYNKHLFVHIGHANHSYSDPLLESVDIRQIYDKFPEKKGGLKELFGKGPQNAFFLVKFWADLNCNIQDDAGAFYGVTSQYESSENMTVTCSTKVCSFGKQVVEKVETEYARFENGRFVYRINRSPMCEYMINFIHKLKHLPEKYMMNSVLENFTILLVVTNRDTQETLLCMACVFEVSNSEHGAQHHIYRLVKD
Series [5] is described as follows: Reduction resistance of soluble optides (DTT or glutathione, RP-HPLC, LC/MS). It counts as physicochemical. The conditions noted are these: for reduction with 10 mM DTT: soluble optide, SDS-PAGE, mass spectrometry.
The target in series [6] is T3, TEAD (Homo sapiens, UniProt P28347).
T3 construct: GST; made in house; host or cells: Hi5 insect cells (baculovirus, pIEX-BAC3 vector)
The experiment in a line: Surface display TEAD binding by flow cytometry (SDGF, 293F cells). The conditions noted are these: tetravalent staining, SDGF-TB1G1 cells.

Series [7] concerns the target T2, YAP:TEAD. It counts as binding. Also on record: GST; made in house; host or cells: TEAD from Hi5 insect cells. To be noted: 293F cells expressing SDGF-YAP, 5 nM TEAD, 0-100 nM optide.
Target sequence in this assay (P28347 209-426): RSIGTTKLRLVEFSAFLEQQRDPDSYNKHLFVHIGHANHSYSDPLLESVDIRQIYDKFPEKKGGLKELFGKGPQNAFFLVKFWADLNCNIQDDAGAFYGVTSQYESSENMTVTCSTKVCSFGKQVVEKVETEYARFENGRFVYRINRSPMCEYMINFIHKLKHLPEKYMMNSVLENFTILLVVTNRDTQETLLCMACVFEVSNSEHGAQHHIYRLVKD
Series [8] addresses T1, trypsin. The series is described as follows: Protease stability in surface display (SDPR), trypsin. It counts as in vitro ADME. More on the design: purchased Promega V5111. To be noted: 40 µg mL^-1 trypsin, SDPR-TB1G2 on 293F cells, then 5 mM DTT and iFluor 647 anti-6xHis staining.
Series [9] deals with T2, YAP:TEAD. The class given is cell-based. Also on record: endogenous in cells; host or cells: HeLa cells. To be noted: HeLa cells, 5 µM optide with 5 µM dfTAT, 90 min; versus dfTAT alone, P < 0.0001.
Target sequence in this assay (P28347 whole entry): as the sequence (P28347 whole entry) above
For series [10], the target named is T4, chymotrypsin (Bos taurus, UniProt P00766).
T4 construct: purchased Promega V1062
The series is described as follows: Protease stability in surface display (SDPR), chymotrypsin. It counts as in vitro ADME. To be noted: 40 µg mL^-1 chymotrypsin, SDPR-TB1G2 on 293F cells, then 5 mM DTT and iFluor 647 anti-6xHis staining.

Series [11] concerns the target T3, TEAD. The experiment in a line: Reduction resistance of surface displayed optides (GSH or DTT, then TEAD binding). It counts as physicochemical. The conditions noted are these: 10 mM glutathione for 5 mins, then TEAD binding (20 nM, 2-step stain).
The subject of series [12] is HeLa cells. The experiment in a line: Cell penetration of DyLight 488 labelled optide in HeLa cells. The class given is cell-based. To be noted: 5 µM optide without dfTAT.

T1 sequence (P00761 9-231): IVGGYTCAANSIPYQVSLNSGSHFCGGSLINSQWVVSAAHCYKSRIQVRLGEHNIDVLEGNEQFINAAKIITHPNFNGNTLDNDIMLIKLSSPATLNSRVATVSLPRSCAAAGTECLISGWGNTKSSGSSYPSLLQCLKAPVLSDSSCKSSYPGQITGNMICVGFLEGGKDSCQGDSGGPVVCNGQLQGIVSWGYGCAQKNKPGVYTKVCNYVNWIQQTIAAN
T3 sequence (P28347 209-426): as the sequence (P28347 209-426) above

As to Beta/delta-agatoxin-6 [Peptide 3], the “Trypsin Resistance” value in series [1] turned out to be 102%.
The same measure, in the same setting: under “GSRGQCWSYSNCRAVCRDEGYVSGHCNYFGGACWCAS (also: bicyclic or more (positions not given here)) [Peptide 13, Putative uncharacterized protein]” stands 52%.
Same read-out and setting: under “GSKEICERPNGSCRDFCLETEIHVGRCLNSQPCCLPL (also: bicyclic or more (positions not given here)) [Peptide 4, Beta-defensin 108B]” stands 95%; under “GSSVPCVSTRGSCKPPAPACCHPCASCQCRFFRSACSCRVLNVNC (also: bicyclic or more (positions not given here)) [Peptide 12, Agouti-signaling protein]”, 60%; under “GSVDGCQETCTKMIRCQFFTYSLFPEDCRGEKCKCSLR (also: bicyclic or more (positions not given here)) [Peptide 16, Plasma kallikrein]”, 50%.
As for `CC[C@H](C)[C@H](NC(=O)[C@H](Cc1ccc(O)cc1)NC(=O)[C@H](CCC(=O)O)NC(=O)[C@H](CC(=O)O)NC(=O)[C@@H]1CCCN1C(=O)[C@H](CO)NC(=O)CN)C(=O)N[C@@H](CCC(=O)O)C(=O)N[C@@H](CCCNC(=N)N)C(=O)N[C@@H](C)C(=O)N[C@@H](CCCCN)C(=O)N[C@@H](CCC(=O)O)C(=O)N[C@H]1CSSC[C@@H]2NC(=O)[C@H](CCC(N)=O)NC(=O)[C@H]([C@@H](C)CC)NC(=O)[C@H](CC(=O)O)NC(=O)[C@H](CCC(N)=O)NC(=O)[C@H](CCCCN)NC(=O)[C@H](CCCCN)NC(=O)[C@H](CSSC[C@@H](C(=O)N3CCC[C@H]3C(=O)O)NC(=O)[C@H](Cc3ccccc3)NC(=O)[C@H](CC(C)C)NC(=O)[C@@H]3CSSC[C@H](NC2=O)C(=O)N[C@@H](CC(C)C)C(=O)N[C@@H](CCCNC(=N)N)C(=O)N[C@@H]([C@@H](C)CC)C(=O)N[C@@H](Cc2ccccc2)C(=O)N[C@@H](CC(=O)O)C(=O)N[C@@H](CCC(=O)O)C(=O)N[C@@H](CO)C(=O)N[C@@H](CCCCN)C(=O)N[C@@H](CC(=O)O)C(=O)N2CCC[C@H]2C(=O)N[C@@H](CC(N)=O)C(=O)N[C@@H](C(C)C)C(=O)N[C@@H](CCSC)C(=O)N[C@@H](CC(C)C)C(=O)N[C@@H]([C@@H](C)CC)C(=O)N3)NC1=O` [TB1G2-W40P], the melting temperature result in [2] was “no melting temperature could be determined”. Further, the “thermostability by circular dichroism” value in series [3] is “identical before (Pre) and after (Post) incubation at 95 °C”.
For “GSYTDCTESGQNLCLCEGSNVCGKGNKCILGSQGKDNQCVTG (also: bicyclic or more (positions not given here)) [Peptide 5, Hirudin-PA]”, the “Trypsin Resistance” value in series [1] is reported as 75%.
Same read-out and setting: next, “GSGICACRRRFCLNFEQFSGYCRVNGARYVRCCSRR (also: bicyclic or more (positions not given here)) [Peptide 9, Corticostatin-6]”: 65%.
For `CC[C@H](C)[C@@H]1NC(=O)[C@H](CC(=O)O)NC(=O)CNC(=O)[C@H](CCCCN)NC(=O)[C@H](CCCCN)NC(=O)[C@@H]2CSSC[C@@H](C(=O)N3CCC[C@H]3C(=O)O)NC(=O)[C@H](Cc3ccccc3)NC(=O)[C@H](CC(C)C)NC(=O)[C@@H]3CSSC[C@H](NC(=O)[C@H](CSSC[C@H](NC(=O)[C@H](CCC(=O)O)NC(=O)[C@H](CCCCN)NC(=O)[C@H](C)NC(=O)[C@H](CCCNC(=N)N)NC(=O)[C@H](CCC(=O)O)NC(=O)[C@@H](NC(=O)[C@H](Cc4ccc(O)cc4)NC(=O)[C@H](CCC(=O)O)NC(=O)[C@H](CC(=O)O)NC(=O)[C@@H]4CCCN4C(=O)[C@H](CO)NC(=O)CN)[C@@H](C)CC)C(=O)N2)NC(=O)[C@H](CCC(N)=O)NC1=O)C(=O)N[C@@H](CC(C)C)C(=O)N[C@@H](CCCNC(=N)N)C(=O)N[C@@H](Cc1ccc(O)cc1)C(=O)N[C@@H](Cc1ccccc1)C(=O)N[C@@H](CCC(=O)O)C(=O)N[C@@H](CCC(=O)O)C(=O)N[C@@H](CO)C(=O)NCC(=O)N[C@@H](CC(=O)O)C(=O)N1CCC[C@H]1C(=O)N[C@@H](CC(N)=O)C(=O)N[C@@H](C(C)C)C(=O)N[C@@H](CCSC)C(=O)N[C@@H](CC(C)C)C(=O)N[C@@H]([C@@H](C)CC)C(=O)N3` [TB1G1], the “inhibition of FLAG-YAP co-immunoprecipitation with Myc-TEAD” value in series [4] (293T cell lysate, 30 min at 4 °C) is “dose-dependent inhibition”. The “reduction with 10 mM DTT” value in [5] is reported as “complete”. Further, in [6], the “TEAD concentration at which binding was still detectible” value was determined as 64 pM and the “TEAD concentration of peak signal:noise” value came out at 8 nM. Also, the “inhibition of YAP:TEAD-dependent cell staining” value in series [7] is “inhibited YAP:TEAD-dependent cell staining”.
Take `CC[C@H](C)[C@H](NC(=O)[C@H](Cc1ccc(O)cc1)NC(=O)[C@H](CCC(=O)O)NC(=O)[C@H](CC(=O)O)NC(=O)[C@@H]1CCCN1C(=O)[C@H](CO)NC(=O)CN)C(=O)N[C@@H](CCC(=O)O)C(=O)N[C@@H](CCCNC(=N)N)C(=O)N[C@@H](C)C(=O)N[C@@H](CCCCN)C(=O)N[C@@H](CCC(=O)O)C(=O)N[C@H]1CSSC[C@@H]2NC(=O)[C@H](CCC(N)=O)NC(=O)[C@H]([C@@H](C)CC)NC(=O)[C@H](CC(=O)O)NC(=O)[C@H](CCC(N)=O)NC(=O)[C@H](CCCCN)NC(=O)[C@H](CCCCN)NC(=O)[C@H](CSSC[C@@H](C(=O)N[C@@H](Cc3c[nH]c4ccccc34)C(=O)O)NC(=O)[C@H](Cc3ccccc3)NC(=O)[C@H](CC(C)C)NC(=O)[C@@H]3CSSC[C@H](NC2=O)C(=O)N[C@@H](CC(C)C)C(=O)N[C@@H](CCCNC(=N)N)C(=O)N[C@@H]([C@@H](C)CC)C(=O)N[C@@H](Cc2ccccc2)C(=O)N[C@@H](CC(=O)O)C(=O)N[C@@H](CCC(=O)O)C(=O)N[C@@H](CO)C(=O)N[C@@H](CCCCN)C(=O)N[C@@H](CC(=O)O)C(=O)N2CCC[C@H]2C(=O)N[C@@H](CC(N)=O)C(=O)N[C@@H](C(C)C)C(=O)N[C@@H](CCSC)C(=O)N[C@@H](CC(C)C)C(=O)N[C@@H]([C@@H](C)CC)C(=O)N3)NC1=O` [TB1G2]: the “protease stability in surface display, trypsin” value in series [8] was “no change in anti-6xHis staining”. Further, the melting temperature result in series [2] is on record as “no melting temperature could be determined”. Besides, the “stability under intracellular reducing conditions, soluble” value in series [5] (10 mM glutathione) is given as “no effect on TB1G2 stability”. Moreover, the “reduction with 10 mM DTT” value in [5] is listed as “incomplete reduction”. Further, the “YAP:TEAD PLA speckles per nucleus” value in [9] is on record as “reduction in speckles”. Moreover, the “protease stability in surface display, chymotrypsin” value in [10] is “no change in anti-6xHis staining”. For the same compound, the “stability under intracellular reducing conditions, surface displayed” value in [11] was “no effect on TB1G2 stability”. Further, in series [3], the “thermostability by circular dichroism” value was “no evidence of altered TB1G2 structure up to 95 °C; also recorded: identical before (Pre) and after (Post) incubation at 95 °C”. The “inhibition of YAP:TEAD-dependent cell staining” value in [7] is listed as “much higher potency”. The cell penetration entry in series [12] is recorded as “failed to demonstrate cell penetration; also recorded: not yet cell penetrant”.
Regarding U9-theraphotoxin-Cj1a [Peptide 11], in [1], the “Trypsin Resistance” value was 46%.
Same read-out and setting: next, “GSPMTCEQAMASCEHTMCGYCQGPLYMTCIGITTDPECGLP (also: bicyclic or more (positions not given here)) [Peptide 6, Mating pheromone Er-2/Er-9]”: 97%.
As to “GSAPPCKRDVDCSFECPKGGFCNDRLGTCDCF (also: bicyclic or more (positions not given here)) [Peptide 1, Putative defensin-like protein 257]”, the “Trypsin Resistance” value in series [1] was determined as 90%.
As for Turripeptide IX-01 [Peptide 8], in series [1], the “Trypsin Resistance” value is 96%.
In the case of “H-GSPDEYIERAKECCKKGDIQCCLRYFEESGDPNVMLICLACP-OH (disulfide 13-21, 14-41, 22-38) [TB1G1-F38A]”, in series [4], the “inhibition of FLAG-YAP co-immunoprecipitation with Myc-TEAD” value is recorded as “not”.
“GSDLVCYCRKRGCKRREHMNGTCRRGHLMYTLCCR (also: bicyclic or more (positions not given here)) [Peptide 10, Alpha-defensin 13]”: the “Trypsin Resistance” value in series [1] was found to be 43%.
The same measure, in the same setting: under “Venom defensin-like peptide A [Peptide 2]” stands 84%; under “GSKDYCPGICNVAAVPDCDTLCISLGYSGGYCRAGRICCCNPK (also: bicyclic or more (positions not given here)) [Peptide 7, Uncharacterized protein]”, 96%.

The values above are taken from article PMC5740061 (Nature Communications, 2017).
